Measured values: the supplement of paper PMC11208160

Assay: recombinant barcode read abundance after kanamycin selection (control-corrected) (log10(CPM+1)); higher = more efficient recombination; sequences stand for … in AGTGCAGAGAAAATCGGCCAGTTTTCTCTGCCTGCAGTCCGCATGCCGT…AGATTTATGCAGCGGACTGCCTTTCTCCCAAAGTGATAAACCGGACAGTATCATGGACCGGTTTTCCCGGTAATCCGTATTTGCAAGGTTGGTTTCACT; site = the 11-nt target
How it was run: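 Pooled oligos, each joining a target to an IS621 bridge RNA target-binding loop, were cloned and co-electroporated with a donor plasmid into E. coli. Selective plates carried chloramphenicol/ampicillin/kanamycin and 0.1 mM IPTG, while chloramphenicol/ampicillin LB agar served as control, with two replicates of each. Recombination efficiency rests on averaged, control-corrected counts per million of barcodes at recombinant junctions, shown as log10(CPM+1).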
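Also: IS621 recombinase and bridge RNA in Escherichia coli cells.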

| Sequence | recombinant barcode read abundance (log10) |
| --- | --- |
| GTATCCTCTTGGGTTCTAACCTGTTGCAT (site GTATCCTCTAT) | 2.28 |
| GTATCCTCTTGGGTTCTAACCTGTTGCAT (site GTATGCTCTAC) | 0.0984 |
| GTATCTCCTTGGGTTCTAACCTGTTGCGG (site GTATCTCCTCC) | 0.0723 |
| GTATCTCCTTGGGTTCTAACCTGTTGCGG (site GTCTCACCTCC) | 0.0668 |
| GTATCTCCTTGGGTTCTAACCTGTTGCTT (site GTATCTCCTAA) | 0.321 |
| GTATCTCCTTGGGTTCTAACCTGTTGCTT (site GTATTTCCTAA) | 0.136 |
| GTATGTGCTTGGGTTCTAACCTGTTGCAA (site CTATGTGCTTC) | 0.0841 |
| GTATGTGCTTGGGTTCTAACCTGTTGCAA (site GTATGTGCTTT) | 0.769 |
| GTCAAACCTTGGGTTCTAACCTGTTGCTT (site GACAAACCTAG) | 0.274 |
| GTCAAACCTTGGGTTCTAACCTGTTGCTT (site GTCAAACCTAA) | 0.46 |
| GTCAAAGCTTGGGTTCTAACCTGTTGCCA (site GTCAAAGCTTG) | 0.0767 |
| GTCAAAGCTTGGGTTCTAACCTGTTGCCA (site GTCACAGCTAG) | 0.407 |
| GTCAACCCTTGGGTTCTAACCTGTTGCTG (site GTCAAACCTCA) | 0.045 |
| GTCAACCCTTGGGTTCTAACCTGTTGCTG (site GTCAACCCTCA) | 2.49 |
| GTCAACCCTTGGGTTCTAACCTGTTGCTG (site GTCAAGCCTCA) | 0.32 |
| GTCAACCCTTGGGTTCTAACCTGTTGCTG (site GTCAATCCTCA) | 0.145 |
| GTCAATCCTTGGGTTCTAACCTGTTGCTG (site GTCAAACCTCA) | 0.00666 |
| GTCAATCCTTGGGTTCTAACCTGTTGCTG (site GTCAACCCTCA) | 0.288 |

| Sequence | recombinant barcode read abundance (log10) |
| --- | --- |
| GTCAATCCTTGGGTTCTAACCTGTTGCTG (site GTCAAGCCTCA) | 0.193 |
| GTCAATCCTTGGGTTCTAACCTGTTGCTG (site GTCAATCCTCA) | 1.49 |
| GTCACCGCTTGGGTTCTAACCTGTTGCCT (site GTAACCGCTAG) | 0.409 |
| GTCACCGCTTGGGTTCTAACCTGTTGCCT (site GTCACCGCTAG) | 2.08 |
| GTCACCGCTTGGGTTCTAACCTGTTGCCT (site GTGACCGCTAG) | 0.129 |
| GTCACCGCTTGGGTTCTAACCTGTTGCCT (site GTTACCGCTAG) | 0.464 |
| GTCATGGCTTGGGTTCTAACCTGTTGCCT (site GTCAGGGCTAG) | 0.0945 |
| GTCATGGCTTGGGTTCTAACCTGTTGCCT (site GTCATGGCTAG) | 0.283 |
| GTCCACTCTTGGGTTCTAACCTGTTGCAC (site GTCCACCCTCT) | 0.0658 |
| GTCCACTCTTGGGTTCTAACCTGTTGCAC (site GTCCACTCTGT) | 2.21 |
| GTCCAGTCTTGGGTTCTAACCTGTTGCGT (site GTCCACTCTAA) | 0.0578 |
| GTCCAGTCTTGGGTTCTAACCTGTTGCGT (site GTCCAGTCTAC) | 3.16 |
| GTCCATTCTTGGGTTCTAACCTGTTGCAT (site GGACATTCTAT) | 0.101 |
| GTCCATTCTTGGGTTCTAACCTGTTGCAT (site GTCCATTCTAT) | 1.56 |
| GTCCTATCTTGGGTTCTAACCTGTTGCCA (site ACGGATCCTAT) | 0.0705 |
| GTCCTATCTTGGGTTCTAACCTGTTGCCA (site GTCCTATCTTG) | 0.66 |
| GTCGAACCTTGGGTTCTAACCTGTTGCTA (site GTCGAACCTTA) | 1.79 |
| GTCGAACCTTGGGTTCTAACCTGTTGCTA (site GTCGTAGCTTA) | 0.0873 |
